In patent publication US20230341404A1, “TARGETING STROMA-CANCER INTERACTIONS IN CANCER” (The Regents of the University of California, priority 2022, published 2023):
Residues, ends and D or L forms follow the SMILES beside them. *: point of attachment. Cbz = O=C(OCc1ccccc1)*

What was measured:
KPC or KC cells [1] = experiment: uptake of [3H] from [3H]-proline-labelled ECM; type: cell-based, mouse; details: LG medium, 24 h
Method: To assess the effects of Col I on metabolism, Applicant labeled wild-type and R/R fibroblasts with [^3H]-proline or [U-^13C]-glutamine for five days, during which period the cells coated the plates with Col I-containing ECM. After decellularization, KPC or KC cells and variants thereof were plated and cultured for 24 h in LG medium. The uptake of [^3H] in cells plated on wild-type ECM was dependent on macropinocytosis, as indicated by sensitivity to macropinocytosis inhibitors (EIPA (an NHE1 inhibitor), IPI549 (a PI3Kγ inhibitor) or MBQ-167 (a CDC42 and RAC inhibitor)) and to the knockdown of NHE 1 or SDC1, and enhancement by the ULK1 inhibitor MRT68921 (MRT)^11.
Wild-type or R/R fibroblasts were seeded on 6, 12 or 96-well plates. One day after plating, cells were switched into DMEM (with pyruvate) with 10% dialysed FBS supplemented with or without 500 μM [^3H]-proline or [U-^[…]]-glutamine and 100 μM vitamin C. Cells were cultured for five days with renewal of the medium every 24 h. Then fibroblasts were removed by washing in 1 ml or 500 μl or 100 μl per well PBS with 0.5% (v/v) Triton X-100 and 20 mM NH4OH. The ECM was washed five times with PBS before cancer cell plating. The following day, cancer cells were switched into the indicated medium for 24 or 72 h.

PDAC cells = experiment: cell viability assay (Cell Counting Kit-8) on wild-type or R/R ECM; type: cell-based, mouse and human; details: LG medium
Method: Cells were plated in 96-well plates coated with or without ECM at a density of 3,000 cells (MIA, 1305) or 1,500 cells (KPC or KC) per well and incubated overnight before treatment. 7rh (500 nM), ML120B (10 μM), EIPA (10.5 μM), IPI549 (600 nM), MBQ-167 (500 nM), MRT68921 (600 nM) or ML385 (10 μM), or their combinations, were added to the wells in the presence of complete medium (CM), LG medium or LQ medium for 72 h. Cell viability was determined with a Cell Counting Kit-8 assay (Glpbio). Optical density was read at 450 nm and analysed using a microplate reader with SoftMax 6.5 software (FilterMax F5, Molecular Devices). For all experiments, the medium was replaced every 24 h.

KPC cells = experiment: intrasplenic PDAC cell implantation (liver tumours); type: in vivo, mouse; details: 10 mg kg^−1 EIPA intraperitoneal every other day
Method: FIGS. 14A-14J: Effect of macropinocytosis and mitochondria on Col I-controlled PDAC cell growth. FIG. 14A, Bromodeoxyuridine (BrdU) incorporation into KPC cells plated on ECM mixtures produced by R/R and WT fibroblasts (R:W). Scale bars, 10 μm. FIG. 14B, FIG. 14C, Paren. and IKKα^KD KPC (FIG. 14B) or KC (FIG. 14C) cells were plated −/+ WT or R/R ECM and incubated in LG −/+ indicated reagents. Viable cells were measured after 3 days and depicted relative to untreated plastic-plated Paren. cells. (FIG. 14C). IKKα KD efficiency is shown on the right (FIG. 14B). FIGS. D, E, Viable 1305 (FIG. 14D) or MIA PaCa-2 (FIG. 14E) cells plated as above and incubated in LG −/+ EIPA. f, Viable Paren. and E79Q KPC cells plated, treated, and presented as above. […] Total viable cells were measured as above and are presented relative to the untreated cells. FIG. 14H, Mitochondrial ATP production calculated from FIG. 6B. […] Quantification of the SR positive area is shown on the left. […] Statistical significance determined by two-tailed t-test. […]
Three-month-old Col I^WT or Col I^r/r mice were treated with or without an oral gavage of 25% CCl4 in corn oil twice a week for two weeks. […] Mice were analysed 14 days after treatment with or without 10 mg kg^−1 EIPA (Sigma) by intraperitoneal injection every other day.

DDR1 = experiment: immunoblot of DDR1 in KPC cells plated on wild-type or R/R ECM; type: cell-based, mouse; details: LG medium, 24 h
Method: FIGS. 4A-4G: The Col I—DDR1—NRF2 axis controls macropinocytosis and mitochondrial biogenesis. FIG. 4A, Representative images and quantification of mitochondria and macropinocytosis in TMR-DEX-incubated parental and variant KPC cells grown on wild-type ECM. FIG. 4B, Immunoblot analysis of the indicated proteins in KPC cells grown on plastic or wild-type or R/R ECM and incubated in LG or LQ medium for 24 h. The effects of wild-type and R/R ECM on DDR1 signaling are summarized on the right. mito., mitochondria; pDDR1, phosphorylated DDR1. FIG. 4C, Representative images and quantification of mitochondria and macropinocytosis in TMR-DEX-incubated parental and NRF2^E79Q (E79Q) KPC cells plated on wild-type or R/R ECM in LG medium with or without 7rh or ML120B for 24 h. […] Statistical significance determined by two-tailed t-test. […]
The expression and function of DDR1 vary in different cancer stages and types^18-21. […] Unlike DDR1 in triple-negative breast cancer (TNBC)^20, no shedding of the DDR1 extracellular domain was detected (FIG. 12F). […]
Preparation of protein samples from cells and tissues, immunoblotting and immunoprecipitation were performed as before^10, 30. Immunoreactive bands were detected by an automatic X-ray film processor or a KwikQuant Imager.

KPC or KC cells [2] = experiment: luminescence ATP detection assay; type: cell-based, mouse; details: cells cultured on wild-type ECM, 24 h
Method: KPC or KC cells were grown on 96-well plates coated with or without the indicated ECM in the presence of 100 μl CM or LG medium with or without EIPA (10.5 μM), MBQ-167 (500 nM), MRT68921 (600 nM) or their combinations for 24 h. Then the cell number was measured. Intracellular ATP was determined with a luminescence ATP detection assay system (PerkinElmer) according to the manufacturer's protocol. Finally, luminescence was measured and normalized to cell number.

KPC or KC cells [3] = experiment: L-amino acid assay; type: cell-based, mouse; details: cells cultured on wild-type ECM, LG medium, 24 h
Method: KPC or KC cells were grown on six-well plates coated with or without the indicated ECM in the presence of […] LG medium with or without EIPA (10.5 μM), MRT68921 (600 nM) or their combinations for 24 h. Total amounts of free 1-amino acids (except for glycine) were measured using an L-Amino Acid Assay Kit (Colorimetric, […]) according to the manufacturer's protocol. The concentration of 1-amino acids was calculated within samples by comparing the sample optical density to the standard curve and normalized to cell number.

[4] = IKKα^KD cells versus parental cells
[5] = parental cells on wild-type ECM, 7rh 500 nM, ML120B 10 μM, ML385 10 μM, EIPA 10.5 μM, IPI549 600 nM, MBQ-167 500 nM

Row | SMILES | uptake of [3H] (KPC or KC cells [1]; cells plated on R/R ECM) | uptake of [3H] (KPC or KC cells [1]; cells plated on wild-type ECM) | cell growth (viable cells) (PDAC cells; [4]) | cell growth (viable cells) (PDAC cells; parental cells on R/R ECM) | cell growth (viable cells) (PDAC cells; [5]) | further results
1 | CCn1c2ccccc2c2cc(-n3nncc3-c3ccccc3)ccc21 (racemic) [MBQ-167] | unaffected | sensitivity | more sensitive | did not decrease the low growth | decreased growth on wild-type ECM | 
2 | CCN(c1nc(N)c(C(=O)NC(=N)N)nc1Cl)C(C)C [EIPA] | unaffected | sensitivity | more sensitive | did not decrease the low growth | decreased growth on wild-type ECM | tumour growth (KPC cells; Col I^r/r livers): had little effect; tumour growth (KPC cells; wild-type livers): inhibited tumour growth
3 | C[C@H](NC(=O)c1c(N)nn2cccnc12)c1cc2cccc(C#Cc3cnn(C)c3)c2c(=O)n1-c1ccccc1 [IPI549] | unaffected | sensitivity | more sensitive | did not decrease the low growth | decreased growth on wild-type ECM | 
4 | CC(C)C[C@@H](C=O)NC(=O)[C@H](CC(C)C)NC(=O)[C@H](CC(C)C)NC(=O)OCc1ccccc1 [MG132] (Cbz-Leu-Leu-Leu-aldehyde) |  |  |  |  |  | DDR1 expression (DDR1): rescued DDR1 expression
5 | COc1c(Cl)cc2c([nH]c3cnccc32)c1NC(=O)c1cccnc1C [ML120B] |  |  |  | did not decrease the low growth | decreased growth on wild-type ECM | cell growth (viable cells) (PDAC cells; NRF2(E79Q)-expressing cells): resistant
6 | Cc1ccccc1C(=O)N1CCc2cc(-c3nc(NC(=O)Cc4ccc5c(c4)OCO5)sc3C)ccc21 [ML385] |  |  |  | did not decrease the low growth | decreased growth on wild-type ECM | 
7 | CN1CCc2cc(Nc3ncc(C4CC4)c(NCCCNC(=O)C4CCC4)n3)ccc2C1 [MRT68921] |  | enhancement |  |  |  | levels of ATP (KPC or KC cells [2]): further increased; amino acid content (KPC or KC cells [3]): further increased
